Tested on: CFTR mediated chloride current in Primary CF airway epithelial cells
Assay: Equivalent current assay in primary CF airway epithelial cells (NAUC)
Type: cell-based
Details: 24 h treatment, stimulated with forskolin and VX770, normalized to positive control 3 μM VX809
Protocol: Primary CF airway epithelial cells were obtained from the UNC Cystic Fibrosis Tissue Procurement and Cell Culture Core. The cells are grown at 37° C. in a Heracell 150i incubator using growth media (BEGM, Fischer). Cells were then transferred to differentiation media (ALI, UNC) for a minimum of 4 weeks on coated Costar snapwells. Two days before the Ussing assay the mucus on the apical surface of the cells was aspirated after incubating with 200 μL of differentiation Media for at least thirty (30) minutes. One day before the Ussing assay test compounds were added to the basolateral surface of the cells at various test concentrations dissolved in DMSO. Duplicate wells were prepared giving a n=3 or n=4 protocol.
Cells were treated for 24 hours with various combinations and concentrations of the test articles, reference standard (3 μM VX809, positive control). Compounds stock solutions were prepared in DMSO and diluted 1/1000 into ALI media to their final assay concentration. Cells were treated with combination solutions (2 mL of each dilution) and incubated at 37° C. for 24 h.
For the equivalent current assay, cells on four Transwell (24-well) plates were treated. Each Transwell plate was filled with 200 μl of HBS on the apical surface and 2 ml on the basolateral surface. Plates were placed horizontally in a heated mount at 37° C., and equilibrated for several minutes. Resting current was measured for 15 min and then blocked by the apical addition of 5 μM benzamil. After 20 min, 10 μM forskolin and 1 μM VX770 were added to both the apical and basolateral side to stimulate CFTR. An increase in chloride current is seen as an upward deflection of the trace. After another 30 min, CFTR-172 (a CFTR inhibitor, 2 μM) and/or bumetanide (20 μM) was added to block CFTR mediated chloride current.
The raw data, current vs. time for the Ussing chamber (sampling interval: 10 s) and voltage vs. time and resistance vs. time for the equivalent current assay (sampling interval: 5 minutes) were transferred to Excel (Microsoft Office Professional, version 14.0.7106.5003) for analysis. CFTR specific current was measured as the average amplitude of the increase in current elicited upon addition forskolin and ending upon addition of the CFTR channel specific blocker CFTR-172. This average is equivalent to the sum of the average forskolin activated and the average VX770-potentiated currents. The average current measured in vehicle (0.1% DMSO) treated cells, Iv, was subtracted from the current for the test article, ITA, or from the corrector reference standard VX809 (3 μM ISTD. For replicate measurements, the average vehicle subtracted response for the test article, was normalized to the average vehicle subtracted […] response of the reference corrector VX809 (3 μM). INSC=(ITA−IV)(ave)/(ISTD−IV)(ave) (Equation 1)
A second endpoint, for the equivalent current assay, evaluated was NAUC, the normalized area under the curve (AUC) measuring the response after addition of forskolin and VX770 to the time point right before the addition of the CFTR inhibitor. The AUC is effectively the average response multiplied by the duration of the response. The AUC of the test article, AUCTA was then corrected by subtracting the average vehicle response, AUCV,ave over the same time range, and normalized as for the inhibitor-sensitive current to the difference of the corrector reference standard VX809 (3 μM VX809r,ave and the vehicle response: NAUCTA=[AUCTA−AUCV,ave]/[AUCVx809r,ave−AUCV,ave](Equation 2).
The normalized value for DMSO is 0.0 and for VX-809 alone is 1.0. Combinations of compounds with VX-809 that give normalized values greater than 1.0 show activity in the combination assay. A value of 2 means the test compound doubles the effect to VX-809 alone.
Experiments were run with a minimum of n=4 replicates per concentration. […]

Structure (SMILES): O=C(NCCC(=O)N1CCCCC1)c1cc(-c2ccc(F)cc2)on1 [Example 4]
- NAUC (normalized area under the curve), Test Conc 3 uM: ++ (NAUC “++” refers to an observed NAUC 170-140% of positive control)
- NAUC (normalized area under the curve), Test Conc 10 uM: +++ (NAUC “+++” refers to an observed NAUC >170% of positive control)

Structure (SMILES): O=C(NCc1cccc(F)c1F)c1cc(-c2ccc(F)cc2)on1 [Example 25]
- NAUC (normalized area under the curve), Test Conc 3 uM: + (NAUC “+” refers to an observed NAUC <140% of positive control)
- NAUC (normalized area under the curve), Test Conc 10 uM: + (NAUC “+” refers to an observed NAUC <140% of positive control)

Structure (SMILES): CC(C)OCCNC(=O)c1cc(-c2ccc(F)cc2)on1 [Example 20]
- NAUC (normalized area under the curve), Test Conc 3 uM: + (NAUC “+” refers to an observed NAUC <140% of positive control)
- NAUC (normalized area under the curve), Test Conc 10 uM: ++ (NAUC “++” refers to an observed NAUC 170-140% of positive control)

Structure (SMILES): CN1CCN(C(=O)CCNC(=O)c2cc(-c3ccccc3)no2)CC1 [Example 63]
- NAUC (normalized area under the curve), Test Conc 3 uM: +++ (NAUC “+++” refers to an observed NAUC >170% of positive control)
- NAUC (normalized area under the curve), Test Conc 10 uM: +++ (NAUC “+++” refers to an observed NAUC >170% of positive control)

Structure (SMILES): O=C(NC1CCCC1)c1cc(-c2ccc(F)cc2)on1 [Example 29]
- NAUC (normalized area under the curve), Test Conc 3 uM: ++ (NAUC “++” refers to an observed NAUC 170-140% of positive control)
- NAUC (normalized area under the curve), Test Conc 10 uM: ++ (NAUC “++” refers to an observed NAUC 170-140% of positive control)

Structure (SMILES): O=C(NCCC(=O)N1CCC1)c1cc(-c2ccc(F)cc2)on1 [Example 8]
- NAUC (normalized area under the curve), Test Conc 3 uM: +++ (NAUC “+++” refers to an observed NAUC >170% of positive control)
- NAUC (normalized area under the curve), Test Conc 10 uM: +++ (NAUC “+++” refers to an observed NAUC >170% of positive control)

Structure (SMILES): O=C(NCCCCC(=O)N1CCC1)c1cc(-c2ccc(F)cc2)on1 [Example 16, N-(5-(azetidin-1-yl)-5-oxopentyl)-5-(4-fluorophenyl)isoxazole-3-carboxamide]
- NAUC (normalized area under the curve), Test Conc 3 uM: +++ (NAUC “+++” refers to an observed NAUC >170% of positive control)
- NAUC (normalized area under the curve), Test Conc 10 uM: +++ (NAUC “+++” refers to an observed NAUC >170% of positive control)

Structure (SMILES): O=C(NC[C@@H]1CCCO1)c1cc(-c2ccc(F)cc2)on1 [Example 21]
- NAUC (normalized area under the curve), Test Conc 3 uM: + (NAUC “+” refers to an observed NAUC <140% of positive control)
- NAUC (normalized area under the curve), Test Conc 10 uM: ++ (NAUC “++” refers to an observed NAUC 170-140% of positive control)

Structure (SMILES): O=C(NCC1CCCCC1)c1cc(-c2ccc(F)cc2)on1 [Example 33]
- NAUC (normalized area under the curve), Test Conc 3 uM: + (NAUC “+” refers to an observed NAUC <140% of positive control)
- NAUC (normalized area under the curve), Test Conc 10 uM: + (NAUC “+” refers to an observed NAUC <140% of positive control)

Structure (SMILES): CC(C)CCNC(=O)c1cc(-c2ccc(F)cc2)on1 [Example 31]
- NAUC (normalized area under the curve), Test Conc 3 uM: ++ (NAUC “++” refers to an observed NAUC 170-140% of positive control)
- NAUC (normalized area under the curve), Test Conc 10 uM: ++ (NAUC “++” refers to an observed NAUC 170-140% of positive control)

Structure (SMILES): O=C(NCc1ccccc1)c1cc(-c2ccc(F)cc2)on1 [Example 27]
- NAUC (normalized area under the curve), Test Conc 3 uM: ++ (NAUC “++” refers to an observed NAUC 170-140% of positive control)
- NAUC (normalized area under the curve), Test Conc 10 uM: ++ (NAUC “++” refers to an observed NAUC 170-140% of positive control)

Structure (SMILES): N#Cc1ccc(CNC(=O)c2cc(-c3ccc(F)cc3)on2)cc1 [Example 28]
- NAUC (normalized area under the curve), Test Conc 3 uM: + (NAUC “+” refers to an observed NAUC <140% of positive control)
- NAUC (normalized area under the curve), Test Conc 10 uM: + (NAUC “+” refers to an observed NAUC <140% of positive control)

Structure (SMILES): O=C(NCCCCC(=O)N1CCC1)c1cc(-c2ccc(F)cc2)no1 [Example 53, N-(5-(azetidin-1-yl)-5-oxopentyl)-3-(4-fluorophenyl)isoxazole-5-carboxamide]
- NAUC (normalized area under the curve), Test Conc 3 uM: ++ (NAUC “++” refers to an observed NAUC 170-140% of positive control)
- NAUC (normalized area under the curve), Test Conc 10 uM: +++ (NAUC “+++” refers to an observed NAUC >170% of positive control)
